Laboratory results from ChEMBL document CHEMBL1158079, “Antimalarial 4-phenylcoumarins from the stem bark of Hintonia latiflora” (J Nat Prod, 2006).
Values after ≈ are worked out from the molar mass of the structure shown.

Experiments:
Mus musculus = test: Toxicity in Plasmodium berghei ANKA infected mice (Mus musculus) at 40 mg/kg/day, perorally after 4 days; format: organism-based; set-up: route oral; settings: in vivo, po, 96 h
Plasmodium berghei [1] = test: Antimalarial activity as reduced schizont maturation in Plasmodium berghei ANKA infected mice (Mus musculus) at 40 mg/kg/day peroral dose over 4 days; format: functional; set-up: scale not given: the % may be the effect or the level left; settings: route oral
Plasmodium berghei [2] = test: Antimalarial activity as reduced schizont maturation in Plasmodium berghei after 16 hrs; format: functional; set-up: scale not given: the % may be the effect or the level left
Plasmodium berghei [3] = test: Antimalarial activity as reduced schizont maturation in Plasmodium berghei ANKA infected mice (Mus musculus) at 5 mg/kg/day peroral dose over 4 days; format: functional; set-up: scale not given: the % may be the effect or the level left; settings: route oral
Plasmodium berghei [4] = test: Antimalarial activity reduced schizont maturation in Plasmodium berghei at 10 ug/mL after 16 hrs; format: functional; set-up: scale not given: the % may be the effect or the level left
Plasmodium berghei [5] = test: Antimalarial activity in schizont maturation against Plasmodium berghei ANKA infected mice (Mus musculus) at 200 mg/kg/day peroral dose over 4 days; format: functional; settings: route oral
[6] = Toxicity against human KB cells; format: cell-based; settings: read-out: ED50 (the source's name)
[7] = Toxicity against human SQC1 UISO cells; format: cell-based; settings: read-out: ED50 (the source's name)
[8] = Toxicity against mouse P388 cells; format: cell-based; settings: read-out: ED50 (the source's name)

Row | Structure (SMILES) | Activity (Mus musculus) | Activity (Plasmodium berghei [1]) | Activity (Plasmodium berghei [2]) | Activity (Plasmodium berghei [3]) | Activity (Plasmodium berghei [4]) | Activity (Plasmodium berghei [5]) | CC50 [6] | CC50 [7] | CC50 [8]
1 | COc1cc(O[C@@H]2O[C@H](CO)[C@@H](O)[C@H](O)[C@H]2O)c2c(-c3ccc(O)c(O)c3)cc(=O)oc2c1 | Non-toxic | 70.8% | 25.9% |  |  |  |  |  | 
2 | COc1cc(O[C@@H]2O[C@H](CO)[C@@H](O)[C@H](O)[C@H]2O)c2c(-c3ccc(OC)c(O)c3)cc(=O)oc2c1 | Non-toxic | 35.1% | 24.7% |  |  |  |  |  | 
3 | CCN(CC)CCCC(C)Nc1ccnc2cc(Cl)ccc12 (stereo not drawn) [CHLOROQUINE] | Non-toxic |  |  | 95.7% | 100% | 94% |  |  | 
4 | Cc1c2ccncc2c(C)c2c1[nH]c1ccccc12 [ELLIPTECINE] |  |  |  |  |  |  | 1.31 µg/mL (≈ 5.32 µM) | 1.77 µg/mL (≈ 7.19 µM) | < 1 µg/mL
